{"source": "patent US4841054A", "about": "“2,6-dimethyl-3,5-dimethoxycarbonyl-4-(5'-tri methylsilyl-2'-furyl)-1,4-dihydropyridine” (priority 1988, dated 1989)", "key": {"[1]": {"details": "literature, cited from earlier work"}, "[2]": {"tested_on": "spontaneously hypertensive rats", "assay": "Effect on heart rate in spontaneously hypertensive rats", "format": "in vivo", "details": "for effect on heart rate: 10 and 20 mg/kg, peroral, SHR", "method": "(§1) In experiments on spontaneously hypertensive rats the compound according to the present invention upon a single administration (10 mg/kg in stomach) caused reduction of systolic arterial pressure. The maximum hypotensive effect (by 21 %) was observed by the 6-th hour after administration of the compound, after 24 hours the pressure was reduced by 17 % as compared to the initial value. A […] administration of the compound for 5 days in the dose of 10 mg/kg into the stomach caused the maximum reduction of the pressure (by 22 %) on the 6-th day, i.e., one day after discontinuation of administration of the compound. A reduced pressure was observed on the 3-rd day (by 10 %) after discontinuation of the administration."}, "[3]": {"tested_on": "spontaneously hypertensive rats", "assay": "Effect on arterial pressure in spontaneously hypertensive rats, single administration", "format": "in vivo", "details": "for hypotensive effect by the 6th hour, comparison in words: compound of the present invention vs Nifedipine"}, "white nondescript mice": {"tested_on": "white nondescript mice", "assay": "in vivo", "details": "for toxicity in words: conclusion from Table 2", "method": "(§2) The mean lethal dose (LD50) was determined by the Litchfield and Wilcoxon method."}, "in vivo": {"assay": "in vivo", "details": "mouse, in vivo, ip", "method": "as §2"}, "[4]": {"assay": "Stability by UV spectrum (solid in the light; alcoholic solution)"}, "Solubility": {"assay": "Solubility", "format": "physicochemical"}, "[5]": {"tested_on": "spontaneously hypertensive rats", "assay": "Effect on systolic arterial pressure in spontaneously hypertensive rats, administration for 5 days", "format": "in vivo", "details": "10 mg/kg into the stomach for 5 days", "method": "as §1"}, "[6]": {"details": "10 mg/kg, single administration in stomach"}}, "note": "“Also recorded” adds a separate entry of the source."}
{"molecule": "COC(=O)C1=C(C)NC(C)=C(C(=O)OC)C1c1ccccc1[N+](=O)[O-]", "note": "[Nifedipine, 2,6-dimethyl-3,5-dimethoxycarbonyl-4-(O-nitrophenyl)-1,4-dihydropyridine]", "values": [{"measurement": "hypotensive and coronarodilating effects", "setting": "[1]", "value": "hypotensive and coronarodilating effects"}, {"measurement": "effect on heart rate", "setting": "[2]", "value": "tachycardia"}, {"measurement": "Hypotensive effect, %, after 48 hrs", "setting": "[3]; 10 mg/kg", "value": 0, "unit": "%"}, {"measurement": "Hypotensive effect, %, after 1 hr", "setting": "[3]; [6]", "value": 34, "unit": "%"}, {"measurement": "Hypotensive effect, %, after 6 hrs", "setting": "[3]; [6]", "value": 23, "unit": "%"}, {"measurement": "Hypotensive effect, %, after 24 hrs", "setting": "[3]; [6]", "value": 0, "unit": "%"}, {"measurement": "hypotensive effect by the 6th hour, comparison in words", "setting": "[3]", "value": "same hypotensive effect"}, {"measurement": "hypotensive effect by the 1st hour, comparison in words", "setting": "[3]; 1 hour after administration, vs the compound of the present invention", "value": "superior to the compound of the present invention"}, {"measurement": "hypotensive effect / systolic pressure 24 hours after administration, in words", "setting": "[3]", "value": "systolic pressure returned to the initial level"}]}
{"molecule": "COC(=O)C1=C(C)NC(C)=C(C(=O)OC)C1c1ccco1", "note": "[Analog, 2,6-dimethyl-3,5-dimethoxycarbonyl-4-(2'-furyl)-1,4-dihydropyridine]", "values": [{"measurement": "hypotensive activity compared with Nifedipine", "setting": "[1]; vs Nifedipine", "value": "considerably lower than that of Nifedipine"}, {"measurement": "Hypotensive effect, %, after 48 hrs", "setting": "[3]; 10 mg/kg", "value": 0, "unit": "%"}, {"measurement": "Hypotensive effect, %, after 1 hr", "setting": "[3]; [6]", "value": 12, "unit": "%"}, {"measurement": "Hypotensive effect, %, after 6 hrs", "setting": "[3]; [6]", "value": 7, "unit": "%"}, {"measurement": "Hypotensive effect, %, after 24 hrs", "setting": "[3]; [6]", "value": 0, "unit": "%"}, {"measurement": "hypotensive properties, comparison in words", "setting": "[3]; vs the compound of the present invention", "value": "subtantially lower than those of the compound of the present invention"}, {"measurement": "toxicity in words", "setting": "white nondescript mice", "value": "low toxicity"}, {"measurement": "LD50 at 240 h", "setting": "in vivo", "value": 2900, "unit": "mg/kg"}]}
{"molecule": "COC(=O)C1=C(C)NC(C)=C(C(=O)OC)C1c1ccc([Si](C)(C)C)o1", "note": "[Of this invention, 2,6-dimethyl-3,5-dimethoxycarbonyl-4-(5'-trimethylsilyl-2'-furyl)-1,4-dihydropyridine]", "values": [{"measurement": "effect on heart rate", "setting": "[2]", "value": "either lowers the heart rate or does not change it"}, {"measurement": "effect on heart rate, comparison in words", "setting": "[2]; vs Nifedipine", "value": "less pronounced effect on the heart rate"}, {"measurement": "Hypotensive effect, %, after 1 hr", "setting": "[3]; [6]", "value": 13, "unit": "%"}, {"measurement": "Hypotensive effect, %, after 6 hrs", "setting": "[3]; [6]", "value": 21, "unit": "%"}, {"measurement": "Hypotensive effect, %, after 24 hrs", "setting": "[3]; [6]", "value": 17, "unit": "%"}, {"measurement": "Hypotensive effect, %, after 6 hrs", "setting": "[3]; 20 mg/kg", "value": 30, "unit": "%"}, {"measurement": "Hypotensive effect, %, after 24 hrs", "setting": "[3]; 20 mg/kg", "value": 39, "unit": "%"}, {"measurement": "Hypotensive effect, %, after 48 hrs", "setting": "[3]; 20 mg/kg", "value": 28, "unit": "%"}, {"measurement": "hypotensive effect by the 6th hour, comparison in words", "setting": "[3]", "value": "same hypotensive effect"}, {"measurement": "hypotensive effect / systolic pressure 24 hours after administration, in words", "setting": "[3]", "value": "still produced the hypotensive effect"}, {"measurement": "duration of hypotensive effect, in words", "setting": "[3]; vs Nifedipine and/or analog, listed as compound according to the present invention", "value": "superior over Nifedipine as regards the duration of its effect; also recorded: more lasting hypotensive effect than the analog and Nifedipine"}, {"measurement": "toxicity in words", "setting": "white nondescript mice", "value": "low toxicity as compared to Nifedipine"}, {"measurement": "death of the mice", "setting": "white nondescript mice; doses of up to 1,000 mg/kg, intraperitoneal", "value": "did not cause death of the mice"}, {"measurement": "LD50 at 240 h", "setting": "in vivo", "value": "> 1000", "unit": "mg/kg"}, {"measurement": "period during which UV spectrum remained unchanged in alcoholic solution", "setting": "[4]; alcoholic solution, 5×10^-5 mol", "value": 6, "unit": "months"}, {"measurement": "stability in the crystalline state and as solutions", "setting": "[4]; crystalline state and solutions", "value": "stable"}, {"measurement": "UV spectrum upon storage of the solid in the light", "setting": "[4]; solid, in the light, within a year's period", "value": "does not change its UV spectrum within a year's period"}, {"measurement": "solubility in methanol, ethanol, chloroform, acetone", "setting": "Solubility; methanol, ethanol, chloroform, acetone", "value": "well soluble"}, {"measurement": "solubility in water", "setting": "Solubility; water", "value": "substantially insoluble"}, {"measurement": "reduced pressure on the 3rd day after discontinuation", "setting": "[5]; 3rd day after discontinuation", "value": 10, "unit": "%"}, {"measurement": "maximum reduction of the pressure", "setting": "[5]; on the 6th day (one day after discontinuation)", "value": 22, "unit": "%"}]}
